Patent publication US20250230193A1, “CYCLIC COMPOUND HAVING SELECTIVE KRAS INHIBITORY EFFECT ON HRAS AND NRAS” (CHUGAI SEIYAKU KABUSHIKI KAISHA, priority 2022, published 2025)
*1 amine or outer side, *2 acyl side, *3 side chain or, on linkers, in order; H or OH if unused. Where a SMILES comes first, the peptide text is derived from it. Bridges are numbered along the chain shown (N, C = ends). [ ]: non-standard residue; d: D form. The star is where a group is joined. hPhe(3-Cl-4-CF3) = N[C@@H](CCc1ccc(C(F)(F)F)c(Cl)c1)C(=O)O; X19 = CCCCN([C@@H](Cc1ccc(C)cc1)C(=O)[*:2])[*:1]; NMeGly(cPent) = CN[C@H](C(=O)O)C1CCCC1; NMeD = CN[C@@H](CC(=O)O)C(=O)O; NMeL = CN[C@@H](CC(C)C)C(=O)O; Morpholide = C1CN(*)CCO1; Ac5c = NC1(C(=O)O)CCCC1; Sar = CNCC(=O)O

How the values were obtained:
[1] = target: GDP-bound HRAS wild-type protein (Homo sapiens, UniProt P01112); experiment: Binding to HRAS by surface plasmon resonance (SPR), Single Cycle Kinetics; settings: SPR; for HRAS/KRAS (ratio of KD value for HRAS to KD value for KRAS) / HRAS/KRAS (ratio of KD value with respect to HRAS to KD value with respect to KRAS): GDP-bound HRAS wild-type vs GDP-bound KRAS wild-type
[2] = target: GDP-bound NRAS wild-type protein (Homo sapiens, UniProt P01111); experiment: Binding to NRAS by surface plasmon resonance (SPR), Single Cycle Kinetics; settings: SPR; for NRAS/KRAS (ratio of KD value for NRAS to KD value for KRAS) / NRAS/KRAS (ratio of KD value with respect to NRAS to KD value with respect to KRAS): GDP-bound NRAS wild-type vs GDP-bound KRAS wild-type
GDP-bound NRAS wild-type protein, sequence (P01111 whole entry): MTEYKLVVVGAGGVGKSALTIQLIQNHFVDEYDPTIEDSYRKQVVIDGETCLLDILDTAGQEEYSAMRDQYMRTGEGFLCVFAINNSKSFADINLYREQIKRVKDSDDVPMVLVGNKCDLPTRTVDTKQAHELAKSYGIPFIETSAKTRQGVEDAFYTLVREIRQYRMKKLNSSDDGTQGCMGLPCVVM

GDP-bound HRAS wild-type protein, sequence (P01112 whole entry): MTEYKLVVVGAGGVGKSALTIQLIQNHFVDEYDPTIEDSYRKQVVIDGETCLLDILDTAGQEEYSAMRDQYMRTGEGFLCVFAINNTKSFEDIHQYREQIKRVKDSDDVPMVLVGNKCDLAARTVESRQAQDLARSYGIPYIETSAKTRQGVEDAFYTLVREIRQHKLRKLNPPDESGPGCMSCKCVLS

## CCCCN1C(=O)CN(C)C(=O)CN(C)C(=O)[C@H]([C@@H](C)CC)NC(=O)[C@H](CC(C)C)N(C)C(=O)C[C@@H](C(=O)N2CCOCC2)N(C)C(=O)[C@H](C2CCCC2)N(C)C(=O)C2(CCCC2)NC(=O)[C@@H]2CCCN2C(=O)[C@H](CCc2ccc(C(F)(F)F)c(Cl)c2)NC(=O)CN(C)C(=O)[C@@H]1Cc1ccc(C)cc1 [PP0062] ([NMeL]I[Sar][Sar][X19][Sar][hPhe(3-Cl-4-CF3)]P[Ac5c][NMeGly(cPent)][NMeD]-Morpholide; lactam N-11)
[1]; KD ratio HRAS/KRAS
  HRAS/KRAS (ratio of KD for GDP-bound HRAS wild-type to KD for KRAS): C (A compound having a KD ratio of 0.1 or more and less than 3 is denoted as C)
[2]; KD ratio NRAS/KRAS
  NRAS/KRAS (ratio of KD for GDP-bound NRAS wild-type to KD for KRAS): C (A compound having a KD ratio of 0.1 or more and less than 3 is denoted as C)

## CCCOC[C@H]1C(=O)N[C@@H]([C@@H](C)CC)C(=O)N(C)CC(=O)N(C)[C@H]2C/C=C\CCN(C2=O)[C@@H](Cc2ccc(C(F)(F)F)cc2)C(=O)N(C)CC(=O)N[C@@H](CCc2cc(F)c(C(F)(F)F)c(F)c2)C(=O)N2C[C@H](OCC)C[C@H]2C(=O)NC2(CC(F)(F)C2)C(=O)N(C)[C@@H](C2CCCC2)C(=O)N(C)[C@H](C(=O)N(C)CCC)CC(=O)N1C [PP1744]
[1]; KD ratio
  HRAS/KRAS (ratio of KD value for HRAS to KD value for KRAS): A (a compound having 10 or more and less than 20 is denoted as A)
[2]; KD ratio
  NRAS/KRAS (ratio of KD value for NRAS to KD value for KRAS): A (a compound having 10 or more and less than 20 is denoted as A)

## CCO[C@@H]1C[C@H]2C(=O)NC3(CCC3)C(=O)N(C)[C@@H](C3CCCC3)C(=O)N(C)[C@H](C(=O)N(C)C)CC(=O)N(C)[C@@H](Cc3ccc(Cl)cc3)C(=O)N[C@@H]([C@@H](C)CC)C(=O)N(C)CC(=O)N(C)[C@H]3CCCCCN(C3=O)[C@@H](Cc3ccc(C(F)(F)F)cc3)C(=O)N(C)CC(=O)N[C@@H](CCc3cc(F)c(C(F)(F)F)c(F)c3)C(=O)N2C1 [PP0940]
[1]; KD ratio
  HRAS/KRAS (ratio of KD value with respect to HRAS to KD value with respect to KRAS): C (A compound having a KD ratio of 0.1 or more and less than 3 is denoted as C)
[2]; KD ratio
  NRAS/KRAS (ratio of KD value with respect to NRAS to KD value with respect to KRAS): B (a compound having 3 or more and less than 10 is denoted as B)

## CCO[C@@H]1C[C@H]2C(=O)NC3(CC(C)(C)C3)C(=O)N(C)[C@@H](C3CCCC3)C(=O)N(C)[C@H](C(=O)N(C)C)CC(=O)N(C)[C@@H](CC(F)(F)F)C(=O)N[C@@H]([C@@H](C)CC)C(=O)N(C)CC(=O)N(C)[C@H]3C/C=C\CCN(C3=O)[C@@H](Cc3ccc(C(F)(F)F)cc3)C(=O)N(C)CC(=O)N[C@@H](CCc3cc(F)c(C(F)(F)F)c(F)c3)C(=O)N2C1 [PP1644]
[1]; KD ratio
  HRAS/KRAS (ratio of KD value for HRAS to KD value for KRAS): A (a compound having 10 or more and less than 20 is denoted as A)
[2]; KD ratio
  NRAS/KRAS (ratio of KD value for NRAS to KD value for KRAS): A (a compound having 10 or more and less than 20 is denoted as A)

## CCC[C@H]1C(=O)N[C@@H]([C@@H](C)CC)C(=O)N(C)CC(=O)N(C)[C@H]2C/C=C\CCN(C2=O)[C@@H](Cc2ccc(C(F)(F)F)cc2)C(=O)N(C)CC(=O)N[C@@H](CCc2ccc(C(F)(F)F)c(Cl)c2)C(=O)N2C[C@@H](C)C[C@H]2C(=O)NC2(CC(C)(C)C2)C(=O)N(C)[C@@H](C2CCCC2)C(=O)N(C)[C@H](C(=O)N(C)C)CC(=O)N1C [PP2270]
[1]
  HRAS/KRAS (ratio of KD value with respect to HRAS to KD value with respect to KRAS): B (a compound having 3 or more and less than 10 is denoted as B)
[2]
  NRAS/KRAS (ratio of KD value with respect to NRAS to KD value with respect to KRAS): B (a compound having 3 or more and less than 10 is denoted as B)

## CCO[C@@H]1C[C@H]2C(=O)NC3(CCC3)C(=O)N(C)[C@@H](C3CCCC3)C(=O)N(C)[C@H](C(=O)N3CCOCC3)CC(=O)N(C)[C@@H](Cc3cccc(C)c3)C(=O)N[C@@H]([C@@H](C)CC)C(=O)N(C)CC(=O)N(C)[C@H]3CCCCCN(C3=O)[C@@H](Cc3ccc(C(F)(F)F)cc3)C(=O)N(C)CC(=O)N[C@@H](CCc3cc(F)c(C(F)(F)F)c(F)c3)C(=O)N2C1 [PP0932]
[1]; KD ratio
  HRAS/KRAS (ratio of KD value with respect to HRAS to KD value with respect to KRAS): B (a compound having 3 or more and less than 10 is denoted as B)
[2]; KD ratio
  NRAS/KRAS (ratio of KD value with respect to NRAS to KD value with respect to KRAS): B (a compound having 3 or more and less than 10 is denoted as B)
